# Source: patent US11578072B2, “Spiro-lactam NMDA receptor modulators and uses thereof” (Aptinyx Inc., priority 2018, dated 2023)
# Assays:
# [1] = Oral pharmacokinetics in rats (plasma, brain, CSF); assay type: in vivo, Sprague Dawley rats; conditions: rat, oral gavage, 10 mg/kg
# Experimental: In another experiment, Sprague Dawley rats were dosed per os (oral gavage) using a normal saline formulation containing 10 mg/kg of the compounds identified in the table below. Plasma, brain, and CSF samples were analyzed at various time points over a 24 hour period. The table below summarizes the results of the oral pharmacokinetics, where the first three values (Tmax, Cmax and AUClast) are plasma values.
# NMDAR2D [2] = target: T1, NMDAR2D (Homo sapiens, UniProt O15399); assay: NMDAR agonist assay, [3H]MK-801 binding, NMDAR2D expressing HEK cell membranes; assay type: biochemical; conditions: 50 μM glutamate
# T1 construct: expressed in transfected cells; host or cells: HEK cells (membrane extract)
# T1 sequence (O15399 28-1336, species assumed, other chains not shown): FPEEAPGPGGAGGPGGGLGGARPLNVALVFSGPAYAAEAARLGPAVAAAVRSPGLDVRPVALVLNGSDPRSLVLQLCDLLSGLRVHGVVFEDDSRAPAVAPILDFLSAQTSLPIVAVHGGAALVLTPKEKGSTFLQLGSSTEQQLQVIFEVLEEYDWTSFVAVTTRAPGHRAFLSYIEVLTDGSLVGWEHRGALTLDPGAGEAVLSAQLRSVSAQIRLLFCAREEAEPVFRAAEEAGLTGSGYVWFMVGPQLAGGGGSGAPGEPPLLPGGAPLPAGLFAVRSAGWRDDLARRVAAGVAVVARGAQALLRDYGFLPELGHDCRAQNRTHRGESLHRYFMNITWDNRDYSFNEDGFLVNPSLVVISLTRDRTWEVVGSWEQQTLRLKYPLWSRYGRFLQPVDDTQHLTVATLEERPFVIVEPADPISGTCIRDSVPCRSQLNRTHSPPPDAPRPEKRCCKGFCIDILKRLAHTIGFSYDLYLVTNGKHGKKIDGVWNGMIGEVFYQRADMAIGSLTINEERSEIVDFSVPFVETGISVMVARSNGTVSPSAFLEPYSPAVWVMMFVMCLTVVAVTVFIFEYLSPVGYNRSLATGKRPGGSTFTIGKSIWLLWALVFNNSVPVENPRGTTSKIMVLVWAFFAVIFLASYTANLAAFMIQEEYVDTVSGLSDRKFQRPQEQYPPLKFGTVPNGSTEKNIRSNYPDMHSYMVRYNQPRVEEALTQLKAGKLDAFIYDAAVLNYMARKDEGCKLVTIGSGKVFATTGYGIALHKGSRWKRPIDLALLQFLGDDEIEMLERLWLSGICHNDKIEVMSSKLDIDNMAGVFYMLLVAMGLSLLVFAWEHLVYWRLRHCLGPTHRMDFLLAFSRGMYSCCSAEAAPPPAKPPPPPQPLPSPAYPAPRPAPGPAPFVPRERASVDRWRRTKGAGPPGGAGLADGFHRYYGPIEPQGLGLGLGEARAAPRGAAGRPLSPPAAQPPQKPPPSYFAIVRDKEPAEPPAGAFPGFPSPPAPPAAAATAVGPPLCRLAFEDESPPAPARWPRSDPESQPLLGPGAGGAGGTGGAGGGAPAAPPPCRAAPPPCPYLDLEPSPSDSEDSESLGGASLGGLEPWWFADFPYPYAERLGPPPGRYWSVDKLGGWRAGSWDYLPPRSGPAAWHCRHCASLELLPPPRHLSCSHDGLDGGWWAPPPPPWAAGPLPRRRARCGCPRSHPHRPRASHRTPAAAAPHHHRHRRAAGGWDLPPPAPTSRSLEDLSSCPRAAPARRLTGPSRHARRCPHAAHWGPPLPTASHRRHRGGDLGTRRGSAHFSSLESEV
# Experimental: (§1) Assays were conducted as described by Moskal et al., “GLYX-13: a monoclonal antibody-derived peptide that acts as an N-methyl-D-aspartate receptor modulator,” Neuropharmacology, 49, 1077-87, 2005. These studies were designed to determine if the test compounds act to facilitate NMDAR activation in NMDAR2A, NMDAR2B, NMDAR2C or NMDAR2D expressing HEK cell membranes as measured by increases in [3H]MK-801 binding.
# (§2) In the assay, 300 μg of NMDAR expressing HEK cell membrane extract protein was preincubated for 15 minutes at 25° C. in the presence of saturating concentrations of glutamate (50 μM) and varying concentrations of test compound (1×10^−15M-1×10^−7M), or 1 mM glycine. Following the addition of 0.3 μCi of [3H]MK-801 (22.5 Ci/mmol), reactions were again incubated for 15 minutes at 25° C. (nonequilibrium conditions). Bound and free [3H]MK-801 were separated via rapid filtration using a Brandel apparatus.
# (§3) In analyzing the data, the DPM (disintegrations per minute) of [3H]MK-801 remaining on the filter were measured for each concentration of test compound or for 1 mM glycine. The DPM values for each concentration of a ligand (N=2) were averaged. The baseline value was determined from the best fit curve of the DPM values modeled using the GraphPad program and the log(agonist) vs. response(three parameters) algorithm was then subtracted from all points in the dataset. The % maximal [3H]MK-801 binding was then calculated relative to that of 1 mM glycine: all baseline subtracted DPM values were divided by the average value for 1 mM glycine. The EC50 and % maximal activity were then obtained from the best fit curve of the % maximal [3H]MK-801 binding data modelled using the GraphPad program and the log(agonist) vs. response(three parameters) algorithm.
# (§4) The tables below summarize the results for the wild type NMDAR agonists NMDAR2A, NMDAR2B, NMDAR2C, and NMDAR2D, and whether the compound is not an agonist (−), is an agonist (+), or is a strong agonist (++), where column A is based on the % maximal [3H]MK-801 binding relative to 1 mM glycine (−=0; <100%=+; and >100%=++); and column B is based on log EC50 values (0=−; >1×10^−9 M (e.g., −8)=+; and <1×10^−9 M (e.g., −10)++).
# NMDAR2D [3] = target: T2, NMDAR2D (Homo sapiens, UniProt O15399+Q05586); assay: as above; assay type: biochemical; conditions: 50 μM glutamate, read-out: NMDAR2D B: log EC50 (converted)
# T2 construct: expressed in transfected cells; host or cells: HEK cells (membrane extract)
# T2 sequence (O15399 28-1336, species assumed, other chains not shown): as above
# Experimental: as §1, §2, §3, §4
# Plasma stability (Rat) = assay type: in vitro ADME; conditions: after 60 minutes
# Experimental: (§5) Plasma stability of disclosed compounds was investigated. The following table indicates the percent of compound remaining after 60 minutes.
# NMDAR2B = target: T3, NMDAR2B (Homo sapiens, UniProt Q13224); assay: NMDAR agonist assay, [3H]MK-801 binding, NMDAR2B expressing HEK cell membranes; assay type: biochemical; conditions: 50 μM glutamate
# T3 construct: expressed in transfected cells; host or cells: HEK cells (membrane extract)
# T3 sequence (Q13224 27-1484, species assumed, other chains not shown): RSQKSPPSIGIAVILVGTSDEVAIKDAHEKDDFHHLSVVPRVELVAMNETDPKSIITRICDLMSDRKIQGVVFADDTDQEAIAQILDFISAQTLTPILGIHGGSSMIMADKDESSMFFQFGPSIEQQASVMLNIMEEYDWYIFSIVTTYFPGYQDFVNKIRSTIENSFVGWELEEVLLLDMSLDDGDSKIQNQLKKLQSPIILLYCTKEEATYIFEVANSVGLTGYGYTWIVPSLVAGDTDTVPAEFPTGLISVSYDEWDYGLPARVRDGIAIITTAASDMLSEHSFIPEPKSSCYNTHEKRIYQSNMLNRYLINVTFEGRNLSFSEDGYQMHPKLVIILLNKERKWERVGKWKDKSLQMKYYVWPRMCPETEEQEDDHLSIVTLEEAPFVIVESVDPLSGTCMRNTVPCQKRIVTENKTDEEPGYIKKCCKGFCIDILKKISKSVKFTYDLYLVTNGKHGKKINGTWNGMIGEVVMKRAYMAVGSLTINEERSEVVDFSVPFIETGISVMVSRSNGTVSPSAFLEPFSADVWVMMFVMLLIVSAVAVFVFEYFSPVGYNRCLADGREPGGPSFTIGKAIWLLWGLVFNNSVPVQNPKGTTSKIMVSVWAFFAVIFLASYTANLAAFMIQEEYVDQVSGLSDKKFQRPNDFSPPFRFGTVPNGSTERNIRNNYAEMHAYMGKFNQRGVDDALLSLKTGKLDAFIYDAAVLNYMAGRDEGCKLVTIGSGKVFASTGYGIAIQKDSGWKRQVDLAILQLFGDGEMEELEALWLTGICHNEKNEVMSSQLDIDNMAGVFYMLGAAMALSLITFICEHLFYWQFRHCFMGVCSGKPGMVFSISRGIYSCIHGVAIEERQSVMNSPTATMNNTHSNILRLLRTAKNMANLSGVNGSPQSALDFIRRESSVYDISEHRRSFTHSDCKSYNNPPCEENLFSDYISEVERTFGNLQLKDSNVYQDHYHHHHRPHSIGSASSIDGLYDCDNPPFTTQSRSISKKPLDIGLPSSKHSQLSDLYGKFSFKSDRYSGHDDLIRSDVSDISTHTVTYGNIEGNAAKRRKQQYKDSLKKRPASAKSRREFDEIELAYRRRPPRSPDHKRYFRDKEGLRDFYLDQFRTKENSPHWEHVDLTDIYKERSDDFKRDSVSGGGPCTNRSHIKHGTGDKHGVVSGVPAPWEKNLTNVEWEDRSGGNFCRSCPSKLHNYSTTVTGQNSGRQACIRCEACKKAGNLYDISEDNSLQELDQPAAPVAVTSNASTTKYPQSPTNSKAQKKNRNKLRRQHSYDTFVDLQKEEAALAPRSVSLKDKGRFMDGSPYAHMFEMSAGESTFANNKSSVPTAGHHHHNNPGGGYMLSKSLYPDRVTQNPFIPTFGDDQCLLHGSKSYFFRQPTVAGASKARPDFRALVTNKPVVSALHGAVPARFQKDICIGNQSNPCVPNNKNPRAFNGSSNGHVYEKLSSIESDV
# Experimental: as §1, §2, §3, §4
# Plasma stability (Human) = assay type: in vitro ADME; conditions: after 60 minutes
# Experimental: as §5
# Sprague Dawley rats = assay: Porsolt forced swim test; assay type: in vivo
# Experimental: A non-clinical in vivo pharmacology study (Porsolt assay) was performed to measure antidepressant-like effects. The study allowed for the evaluation of the effects of each compound on the Porsolt forced swim test as assessed by the rats' response (reduced floating time) during a 5-minute swimming test.
# Male 2-3 month old Sprague Dawley rats were used (Harlan, Indianapolis, Ind.). Rats were housed in Lucite cages with aspen wood chip bedding, maintained on a 12:12 light:dark cycle (lights on at 5 AM), and given ad libitum access to Purina lab chow (USA) and tap water throughout the study.
# The Porsolt forced swim test adapted for use in rats was performed as described by Burgdorf et al., (The long-lasting antidepressant effects of rapastinel (GLYX-13) are associated with a metaplasticity process in the medial prefrontal cortex and hippocampus. Neuroscience 308:202-211, 2015). Animals were placed in a 46 cm tall×20 cm in diameter clear glass tube filled to 30 cm with tap water (23±1° C.) for 15 min on the first day (habituation) and 5 min on the subsequent test day. Animals were tested 1 h or 1 week post-dosing with the test compounds or vehicle control (0.5% sodium carboxymethyl cellulose in 0.9% sterile saline). Animals received a 15 min habituation session 1 day before the first 5 min test. Water was changed after every other animal. Animals were videotaped, and floating time as defined as the minimal amount of effort required to keep the animals head above water was scored offline by a blinded experimenter with high inter-rater reliability (Pearson's r>0.9).
# [4] = IV pharmacokinetics in rats; conditions: Sprague Dawley, in vivo, rat, 2 mg/kg, normal saline
# Experimental: Sprague Dawley rats were dosed intravenously using a normal saline formulation containing 2 mg/kg of the compounds identified in the below table. The table below summarizes the results of the IV pharmacokinetics.
compound,measurement,setting,value
"CC(C)C(=O)N1CCC2(CCCNC2=O)CC1 [Compound AD, 9-isobutyryl-2,9-diazaspiro[5.5]undecan-1-one]",bioavailability,"[1]; Sprague Dawley, plasma",70%
same,AUC(0-t),"[1]; Sprague Dawley, plasma",18400 ng·h/mL
same,Cmax,"[1]; Sprague Dawley, plasma",8540 ng/mL
same,Tmax,"[1]; Sprague Dawley, plasma",0.33 h
same,CSF Cmax,[1]; CSF,4697 ng/mL
same,Brain Cmax,[1]; brain,4833 ng/mL
same,NMDAR2D A: % maximal [3H]MK-801 binding relative to 1 mM glycine,NMDAR2D [2],+ (<100%=+)
same,EC50,NMDAR2D [3],< 1 nM
same,Plasma (Rat): percent of compound remaining,Plasma stability (Rat),95%
same,NMDAR2B A: % maximal [3H]MK-801 binding relative to 1 mM glycine,NMDAR2B,+ (<100%=+)
same,EC50,NMDAR2B; read-out: NMDAR2B B: log EC50 (converted),< 1 nM
same,Plasma (Human): percent of compound remaining,Plasma stability (Human),98%
same,% reduction in float time,"Sprague Dawley rats; 0.00001 mg/kg, 1 wk post-dose",1%
same,Significance vs. vehicle,"Sprague Dawley rats; 0.00001 mg/kg, 1 wk post-dose",No
same,% reduction in float time,"Sprague Dawley rats; 0.00001 mg/kg, 1 h post-dose",25%
same,Significance vs. vehicle,"Sprague Dawley rats; 0.00001 mg/kg, 1 h post-dose",No
same,% reduction in float time,"Sprague Dawley rats; 0.001 mg/kg, 1 wk post-dose",41%
same,Significance vs. vehicle,"Sprague Dawley rats; 0.001 mg/kg, 1 wk post-dose",No
same,% reduction in float time,"Sprague Dawley rats; 0.001 mg/kg, 1 h post-dose",47%
same,Significance vs. vehicle,"Sprague Dawley rats; 0.001 mg/kg, 1 h post-dose",Yes
same,% reduction in float time,"Sprague Dawley rats; 0.1 mg/kg, 1 wk post-dose",39%
same,Significance vs. vehicle,"Sprague Dawley rats; 0.1 mg/kg, 1 wk post-dose",No
same,% reduction in float time,"Sprague Dawley rats; 0.1 mg/kg, 1 h post-dose",53%
same,Significance vs. vehicle,"Sprague Dawley rats; 0.1 mg/kg, 1 h post-dose",Yes
same,% reduction in float time,"Sprague Dawley rats; 10.0 mg/kg, 1 wk post-dose",37%
same,Significance vs. vehicle,"Sprague Dawley rats; 10.0 mg/kg, 1 wk post-dose",No
same,% reduction in float time,"Sprague Dawley rats; 10.0 mg/kg, 1 h post-dose",39%
same,Significance vs. vehicle,"Sprague Dawley rats; 10.0 mg/kg, 1 h post-dose",Yes
same,AUC(0-t),[4],5280 ng·h/mL
same,Cmax,[4],3790 ng/mL
same,clearance,[4],6.22 mL/min/kg
same,half-life,[4],6.37 h
same,Vd,[4]; read-out: Vss,0.92 L/kg
